Values quoted from earlier work as cited in patent publication US20200276209A1, “METHODS OF TREATING EPILEPSY OR STATUS EPILEPTICUS” (Sage Therapeutics, Inc., priority 2017, published 2020).
Like-named read-outs stand apart in the source and are kept apart here.

System: status epilepticus

| Compound | patients who did not respond to first line treatment (intramuscular (IM) treatment) [%] | patients who did not respond to first line treatment (intravenous (IV) treatment) [%] |
| --- | --- | --- |
| Cc1ncc2n1-c1ccc(Cl)cc1C(c1ccccc1F)=NC2 [midazolam] | 26.6 | – |
| O=C1Nc2ccc(Cl)cc2C(c2ccccc2Cl)=NC1O (centres unmarked) [lorazepam] | – | 36.6 |
